Laboratory results reported in article PMC6021367, “Regulated intratumoral expression of IL-12 using a RheoSwitch Therapeutic System® (RTS®) gene switch as gene therapy for the treatment of glioma” (Cancer Gene Therapy, 2018).

Key:
[1] = system: GL-261 glioma; assay: Survival in syngeneic mouse GL-261 orthotopic glioma model; format: in vivo, C57BL/6 mice; settings: temozolomide 300 mg/m^2 qdx5, anti-PD-1 15 mg/m^2 q4dx5
Description: At 5 days prior to treatment initiation, female C57BL/6 (C57BL/6NHsd) mice 6–7 weeks old (Envigo; Indianapolis, IN) were inoculated intracranially with 3 µL of GL-261 murine glioblastoma tumor cells at 1 × 10^5 cells/mouse. Implant coordinates were 1 mm anterior and 2 mm lateral to the bregma, at a depth of 3 mm. Buprenorphine (Reckitt Benckiser Healthcare; UK) was administered to the mice approximately 30 min prior to surgery. After 5 days, mice were randomized into one of the treatment groups. For those mice administered Ad-RTS-mIL-12, the vector was administered through the same bur hole at the coordinates above in a constant volume of 3–5 μL. Veledimex was administered via oral gavage once daily for 14 consecutive days.
(§1) All values are expressed as the mean ± standard error of the mean. Statistical analysis was performed using a one-way analysis of variance with Dunnets post hoc test to compare differences between the groups versus control. Increased survival fractions were studied using Kaplan–Meier survival plot followed with a log-rank and Gehan–Wilcoxon tests to assess the significance of the differences. All statistical analyses were performed using GraphPrism 5 (GraphPad Software, Inc., CA, USA). Differences between groups were considered significant when P < 0.05. Pharmacokinetics and tissue levels of veledimex was determined using non-compartmental analysis module of the pharmacokinetic software Phoenix 64 WinNonlin.
In this model, each C57BL/6 mouse received 1 × 10^5 GL-261 glioma cells via intracranial injection ~2 mm distal to the intersection of the coronal and sagittal suture. On day 5, the animals were randomly assigned to one of the treatment groups. Animals were monitored for survival.
1 × 10^5 GL-261 glioma cells were administered into the brain. Separate groups of 12 C57BL/6 mice each were randomly assigned to one of the treatment groups. On day 1 animals were administered 1 × 10^5 GL-261 glioma cells intracranially. On day 5, Ad-RTS-mIL-12 at 5 × 10^9 vp+veledimex PO at 1–30 mg/m^2/day PO was administered for 14 consecutive days and the time to disease progression and death was studied. […] All values are expressed as the mean for >12 animals per group.

[2] = Plasma, CSF and brain pharmacokinetics of veledimex in mouse; format: in vivo, C57BL/6 mice
Description: (§2) Brain tumor, plasma and cerebrospinal fluid (CSF) samples were analyzed for veledimex using liquid chromatography/tandem mass spectrometry method. Brain tumor samples were homogenized in homogenization solution (10:90/v:v/acetonitrile:0.1% Tween 80 in water) with ratio of 1 g to 9 mL and proteins precipitated. Veledimex concentrations were calculated with a Quadratic 1/x concentration weighting linear regression over concentration ranges of 0.0500 to 50 ng/mL using deuterated (D3) veledimex as an internal standard.
as §1
Veledimex was administered to separate groups of C57BL/6 mice at a single dose via oral gavage (PO) at 225 mg/m^2. Terminal blood and CSF and brain samples were collected at 1, 2, 4, 6, 24 and 48 h post dose.

[3] = Brain veledimex level in in vivo mechanistic study (increasing vector dose, fixed veledimex dose); set-up: species or system C57BL/6 mice; settings: mean ± SEM
Description: as §2
In this study mice were administered Ad-RTS-mIL-12 1 × 10^8 to 5 × 10^9 vp intracranial at the coordinates stated above with veledimex administered gavage at a fixed dose of 100 mg/m^2/day PO, and brain veledimex, viral copy number and the ability to turn on the switch to elicit local production of IL-12 mRNA and IL-12 protein expressions were assessed. […] The 5 × 10^9 vp dose was chosen for all subsequent studies.

[4] = Plasma and CSF pharmacokinetics of veledimex in cynomolgus monkey; format: in vivo; settings: cynomolgus monkeys
Description: as §2, §1
A single oral dose of veledimex at 120 mg was administered to six cynomolgus monkeys (3/gender) and plasma and CSF levels were assessed through 48 h post treatment. Since no gender-related differences were observed, the data from male and female animals were pooled.

[5] = C57BL/6 mice, single oral dose 225 mg/m^2, CSF
[6] = C57BL/6 mice, single oral dose 225 mg/m^2, brain

For Cn1nnc2c(C(N)=O)ncn2c1=O [temozolomide], the median survival ([1]; bevacizumab 30 mg/m^2 biwk ×3) was 33 days, the “animals surviving to terminal killing” value ([1]; bevacizumab 30 mg/m^2 biwk ×3, day 85) was 14% and the “tumor at terminal killing” value [1] was “all mice having tumor present”.

In the case of CCC[C@@H](N(NC(=O)c1cccc(OC)c1CC)C(=O)c1cc(C)cc(C)c1)C(C)(C)C [veledimex], the “Cmax and AUC0-t ratio between CSF and plasma” value ([2]; C57BL/6 mice, single oral dose 225 mg/m^2) is reported as 0.34%, the “CSF AUC0-t” value [2, 5] is reported as 466 ng·h/mL and the “CSF Cmax” value [2, 5] is reported as 14 ng/mL. For the same compound, the “AUC0-t in the brain” value [2, 6] was 25325 ng·h/mL, the “Cmax in the brain” value [2, 6] was 1794 ng/mL and the Cmax in plasma ([2]; C57BL/6 mice, single oral dose 225 mg/m^2, plasma) was 4153 ng/mL. For the same compound, the “Blood–brain barrier crossing” value ([2]; mice, orally administered) was “crosses the blood–brain barrier”, the “Brain veledimex Cmax” value ([3]; veledimex 100 mg/m^2/day PO + Ad-RTS-mIL-12 1 × 10^8 vp intracranial) was 515 ± 53 ng/g and the “Brain veledimex Cmax” value ([3]; veledimex 100 mg/m^2/day PO + Ad-RTS-mIL-12 1 × 10^9 vp intracranial) was 311 ± 99 ng/g. The “Brain veledimex Cmax” value ([3]; veledimex 100 mg/m^2/day PO + Ad-RTS-mIL-12 5 × 10^9 vp intracranial) was 378 ± 68 ng/g, the “Blood–brain barrier crossing” value ([4]; orally administered) was “crosses the blood–brain barrier” and the “AUC0-t ratio between CSF and plasma” value ([4]; single oral dose 120 mg) was 0.7 ± 0.2. For the same compound, the veledimex brain uptake ([4]; single oral dose 120 mg) was ~ 1%, the “AUC0-t in CSF” value ([4]; single oral dose 120 mg, CSF) was 42.5 ± 17.4 ng·h/mL and the “Cmax in CSF” value ([4]; single oral dose 120 mg, CSF) was 2.07 ± 0.91 ng/mL. For the same compound, the AUC0-t in plasma ([4]; single oral dose 120 mg, plasma) was 5887 ± 2203 ng·h/mL, the Cmax in plasma ([4]; single oral dose 120 mg, plasma, males and females pooled) was 327 ± 142 ng/mL and the “mean plasma Tmax” value ([4]; single oral dose 120 mg, post dose) was ~ 4 h.

Bevacizumab gave a median survival ([1]; bevacizumab 30 mg/m^2 biwk ×3) of 20 days.
